Data on 1 molecule can be found in patent publication US20250171821A1, “HIF-1 ACTIVATORS AND USES THEREOF” (Ramot at Tel-Aviv University Ltd., priority 2022, published 2025).

The subject of assay [1] is human gingival fibroblasts cells (HGF). Nature of the assay: Collagen-I immunofluorescence in human fibroblasts treated with ML228. Type of assay: cell-based. The following applies: 48 hours. From the text: Human fibroblasts were isolated from fragments of healthy masticatory oral mucosa (from the posterior hard palate) collected during periodontal surgeries. Informed consent was obtained from all patients. Shallow tissue samples (without submucosa) with a diameter of approximately 2 mm were excised using a #15C scalpel blade. Exclusion criteria for potential tissue donors were smoking, any systemic disease, pregnancy or lactation, or a history of periodontal disease. Cells were separated into connective tissue and epithelium using dispase II (Sigma-Aldrich, Rehovot, Israel) at 2 mg/mL for two hours at 37° C.
Cells were cultured to sub-confluence on a 96-well plate culture plate or on round-glass cover slips in a 24 well plate and incubated with ML228 at 37° C. in 5% CO2 for 24-96 hours. Cells were fixed for 20 minutes with 4% paraformaldehyde in phosphate-buffered saline (PBS), washed 3 times with PBS, blocked with 2% bovine serum albumin diluted in PBS, which contains 0.1% Triton X-100 for 20 minutes. Fixed cells were incubated with 1:200 of rabbit anti-human type I collagen (Abcam, Cambridge, UK) for 1 hour at 25° C. […] Fluorescence readouts were obtained with excitation/emission (ex/em) of 495/519 nanometer (nm; green) and 340/488 nm (blue) (for FIGS. 2B and 2D); or with ex/em of 358/461 nm (blue), 495/519 nm (green) and 652/668 nm (red) (for FIG. 5A).
All images were analyzed with the computer-based image analysis system (Image J) using the Fiji 2 software (National Institute of Health). Equal field areas were selected for analysis and quantification of fluorescence signals. Quantification of fluorescence signal intensity measured by color threshold and normalized against β-tubulin intensity. Total collagen was evaluated by total fluorescence area intensity.
The effect of ML228 (chemical structure thereof is depicted in FIG. 1), a known activator of HIF, on fibroblasts and osteoblasts was analyzed. […] Collagen-I levels were evaluated by immunohistochemistry via Collagen-I antibody and a fluorescently-labeled secondary antibody. […]

The test system of assay [2] is HIF-1α, Collagen-I protein levels in fibroblast cells. Put plainly: Western blot of HIF-1α and Collagen-I in fibroblast lysate. Type of assay: cell-based, human. How it is done:
Cells at a density of 50,000 cells/well in a 24-well plate were cultured for 2 days with variable ML228 concentrations. Cells were sonicated and lysed in a buffer containing 20 mM Tris-HCL pH=7.5 with a protease inhibitor (Abcam, Cambridge, UK) or a protease inhibitor from Merck (539134, Merck). Equal amounts (1 μg) of total protein were loaded and tested using Western blotting. Samples were divided for testing native samples and denaturative samples, which were dependent on each antibody recognition sites. Samples size was separated by a 6% sodium dodecyl sulfate (SDS) gel and transferred to nitrocellulose membranes that was further incubated overnight with primary antibodies of HIF-1α, and β-tubulin. As for detecting Collagen-I, samples were prepared in native conditions absent of SDS and β-mercaptoethanol. Thereafter, samples were separated by a native gel. Detection of Collagen-I was done in 6% native gel enabling observation of non-denatured structural collagen and preventing thermal degradation of the heat sensitive collagen. After extensive washing with TBST (Tris-buffered saline supplemented with 0.1% Tween-20), the membrane was further incubated with an HRP-conjugated secondary antibody for 1 hour. Chemiluminescence values were read after the addition of ECL substrate in a ChemiDoc imager (Biorad CA, USA).
On the technique in general: A western blot detects proteins with antibodies after separation by electrophoresis.

In the case of `c1ccc(-c2ccc(CNc3nc(-c4ccccn4)nnc3-c3ccccc3)cc2)cc1` [ML228, N-([1,1′-Biphenyl]-4-ylmethyl)-6-phenyl-3-(2-pyridinyl)-1,2,4-triazin-5-amine], in assay [1] (ML228 above 312 nM, normalized to cell number (DAPI), FIG. 5C), the “Collagen-I levels compared to baseline of non-treated cells” value is “more than two-fold higher”. In addition, the “Collagen-I levels at higher concentrations” value in assay [1] (ML228 above 10 μM (10 or 20 μM), HGF cells) is on record as “gradually decrease”. In assay [1] (fibroblasts), the “concentration at which maximum collagen levels were observed” value amounted to 5 µM. For the same molecule, the HIF-1α protein level result is reported as “higher levels” in assay [2] (increasing concentrations of ML228, 48 hours) and “no HIF-1α protein is observed” in assay [2] (low doses of ML228, 48 hours). Moreover, in assay [2] (increasing concentrations of ML228, 48 hours, native gel), the Collagen-I protein level result is “higher levels”.
